The source of these data is patent publication US20070021434A1, “NON-NUCLEOSIDE ANTI-HEPACIVIRUS AGENTS AND USES THEREOF” (Migenix Inc., priority 2005, published 2007).

Chain of HCV RdRp (NS5B) (P26663 whole entry, looked up): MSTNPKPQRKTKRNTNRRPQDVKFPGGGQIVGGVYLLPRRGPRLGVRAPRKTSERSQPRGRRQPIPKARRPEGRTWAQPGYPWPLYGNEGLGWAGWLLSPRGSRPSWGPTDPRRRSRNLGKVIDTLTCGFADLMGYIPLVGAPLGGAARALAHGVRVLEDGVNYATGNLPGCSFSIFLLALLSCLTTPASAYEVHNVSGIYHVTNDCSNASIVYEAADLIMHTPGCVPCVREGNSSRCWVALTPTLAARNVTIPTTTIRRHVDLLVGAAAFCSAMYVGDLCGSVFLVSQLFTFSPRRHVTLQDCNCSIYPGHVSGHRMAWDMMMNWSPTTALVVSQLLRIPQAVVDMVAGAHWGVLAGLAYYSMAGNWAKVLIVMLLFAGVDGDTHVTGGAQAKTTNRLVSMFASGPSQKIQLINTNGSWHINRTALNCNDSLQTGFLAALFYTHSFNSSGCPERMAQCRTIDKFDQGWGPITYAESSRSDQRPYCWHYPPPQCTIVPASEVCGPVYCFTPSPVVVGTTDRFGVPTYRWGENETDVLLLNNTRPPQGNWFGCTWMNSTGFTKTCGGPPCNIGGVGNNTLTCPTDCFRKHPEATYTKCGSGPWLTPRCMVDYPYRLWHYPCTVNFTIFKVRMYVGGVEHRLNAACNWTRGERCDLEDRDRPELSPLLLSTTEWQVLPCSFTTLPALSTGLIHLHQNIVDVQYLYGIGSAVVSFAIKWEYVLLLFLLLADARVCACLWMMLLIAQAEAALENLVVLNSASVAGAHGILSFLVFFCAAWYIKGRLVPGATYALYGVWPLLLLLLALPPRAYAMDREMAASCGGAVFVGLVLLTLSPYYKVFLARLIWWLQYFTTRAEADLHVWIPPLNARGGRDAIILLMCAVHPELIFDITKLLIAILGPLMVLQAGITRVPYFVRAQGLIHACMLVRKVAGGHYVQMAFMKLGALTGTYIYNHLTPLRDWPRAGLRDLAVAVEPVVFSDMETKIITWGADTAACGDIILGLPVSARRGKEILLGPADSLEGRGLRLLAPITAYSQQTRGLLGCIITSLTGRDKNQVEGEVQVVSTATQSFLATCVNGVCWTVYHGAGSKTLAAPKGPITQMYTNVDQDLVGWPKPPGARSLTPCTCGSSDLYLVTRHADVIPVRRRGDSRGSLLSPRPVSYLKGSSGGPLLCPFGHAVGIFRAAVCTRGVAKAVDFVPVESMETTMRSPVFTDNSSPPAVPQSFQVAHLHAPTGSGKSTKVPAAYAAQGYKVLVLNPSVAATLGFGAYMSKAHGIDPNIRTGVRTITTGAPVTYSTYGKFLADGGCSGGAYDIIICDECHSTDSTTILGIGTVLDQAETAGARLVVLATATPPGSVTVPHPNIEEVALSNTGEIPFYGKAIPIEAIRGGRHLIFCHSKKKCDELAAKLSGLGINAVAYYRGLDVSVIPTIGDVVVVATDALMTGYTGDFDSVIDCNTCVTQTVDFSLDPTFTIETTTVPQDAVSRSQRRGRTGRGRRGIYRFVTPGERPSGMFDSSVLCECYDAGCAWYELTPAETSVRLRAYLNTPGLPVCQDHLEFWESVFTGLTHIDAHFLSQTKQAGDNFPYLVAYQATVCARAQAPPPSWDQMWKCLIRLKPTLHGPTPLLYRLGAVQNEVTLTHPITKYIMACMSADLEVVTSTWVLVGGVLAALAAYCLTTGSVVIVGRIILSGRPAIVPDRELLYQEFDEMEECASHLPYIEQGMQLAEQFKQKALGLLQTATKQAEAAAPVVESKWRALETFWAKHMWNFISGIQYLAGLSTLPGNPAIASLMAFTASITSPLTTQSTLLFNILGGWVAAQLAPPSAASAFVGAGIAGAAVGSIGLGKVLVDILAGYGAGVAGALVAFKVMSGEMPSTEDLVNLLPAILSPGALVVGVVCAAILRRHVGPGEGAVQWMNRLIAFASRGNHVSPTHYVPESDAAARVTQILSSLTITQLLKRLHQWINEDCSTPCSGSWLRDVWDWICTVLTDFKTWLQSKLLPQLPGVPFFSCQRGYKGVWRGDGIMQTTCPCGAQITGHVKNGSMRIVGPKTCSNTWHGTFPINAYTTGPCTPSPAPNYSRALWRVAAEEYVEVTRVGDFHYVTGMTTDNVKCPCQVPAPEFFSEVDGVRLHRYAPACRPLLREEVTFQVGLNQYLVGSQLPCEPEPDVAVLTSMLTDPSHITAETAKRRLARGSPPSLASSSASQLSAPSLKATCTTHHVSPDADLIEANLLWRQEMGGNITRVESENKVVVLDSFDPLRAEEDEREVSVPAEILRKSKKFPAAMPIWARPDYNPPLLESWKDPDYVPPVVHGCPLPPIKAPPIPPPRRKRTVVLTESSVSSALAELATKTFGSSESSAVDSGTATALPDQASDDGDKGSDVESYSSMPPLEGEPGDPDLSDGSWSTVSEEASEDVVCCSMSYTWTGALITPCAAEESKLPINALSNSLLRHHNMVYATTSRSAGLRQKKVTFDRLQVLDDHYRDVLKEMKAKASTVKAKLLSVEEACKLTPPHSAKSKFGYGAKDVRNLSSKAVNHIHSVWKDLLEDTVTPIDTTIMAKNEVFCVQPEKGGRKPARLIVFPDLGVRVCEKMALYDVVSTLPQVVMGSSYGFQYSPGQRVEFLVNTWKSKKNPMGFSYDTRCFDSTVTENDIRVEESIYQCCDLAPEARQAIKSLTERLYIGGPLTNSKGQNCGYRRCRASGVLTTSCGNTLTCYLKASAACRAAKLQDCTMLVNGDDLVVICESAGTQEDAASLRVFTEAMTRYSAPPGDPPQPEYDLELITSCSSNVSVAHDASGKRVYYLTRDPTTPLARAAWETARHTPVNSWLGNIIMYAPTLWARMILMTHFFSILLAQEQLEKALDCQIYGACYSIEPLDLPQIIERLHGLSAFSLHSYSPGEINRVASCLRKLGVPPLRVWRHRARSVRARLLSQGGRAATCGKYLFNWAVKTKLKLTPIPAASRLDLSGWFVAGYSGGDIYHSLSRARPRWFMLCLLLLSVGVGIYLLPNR

This assay concerns the target HCV RdRp (NS5B) (UniProt P26663). In kind it is biochemical, hepatitis C virus.
With `CC(C)NC(=O)[C@H](CCCCN)NC(=O)Nc1ccc(OCc2ccccc2)cc1` [Compound 291, (S)-6-AMINO-2-[3-(4-BENZYLOXY-PHENYL)-UREIDO]-HEXANOIC ACID ISOPROPYLAMIDE], the IC50 – broadly, the point on the concentration scale where inhibition reaches its midpoint – was above 50 µM.
Under `CC[C@H](NC(=O)OCC1c2ccccc2-c2ccccc21)C(=O)Nc1ccc(CN(C(=O)c2ccco2)C2CCCCC2)cc1` [Compound 28, (S)-[1-(4-{[CYCLOHEXYL-(FURAN-2-CARBONYL)-AMINO]-METHYL}-PHENYLCARBAMOYL)-PROPYL]-CARBAMIC ACID 9H-FLUOREN-9-YLMETHYL ESTER] stands above 50 µM; under `Cc1ccc(NC(=O)[C@H](CCCCN)NC(=O)Nc2ccc(OCc3cccc([N+](=O)[O-])c3)cc2)cc1` [Compound 275, (S)-6-AMINO-2-{3-[4-(3-NITRO-BENZYLOXY)-PHENYL]-UREIDO}-HEXANOIC ACID P-TOLYLAMIDE], 10 to 50 µM; under `CCCCNC(=O)[C@H](CCCCN)NC(=O)Nc1ccc(OCc2ccccc2)cc1` [Compound 258, (S)-6-AMINO-2-[3-(4-BENZYLOXY-PHENYL)-UREIDO]-HEXANOIC ACID BUTYLAMIDE], above 50 µM.
`NCCC[C@@H](NC(=O)Nc1ccc(-c2ccccc2)cc1)C(=O)Nc1ccc(C2CCCCC2)cc1` [Compound 201, (R)-5-AMINO-2-(3-BIPHENYL-4-YL-UREIDO)-PENTANOIC ACID (4-CYCLOHEXYL-PHENYL)-AMIDE] yielded a half-maximal inhibitory concentration (IC50) below 10 µM.
In turn, `Cc1ccc(NC(=O)C2CCCN2C(=O)OCC2c3ccccc3-c3ccccc32)cc1` [Compound 85, (S)-2-P-TOLYLCARBAMOYL-PYRROLIDINE-1-CARBOXYLIC ACID 9H-FLUOREN-9-YLMETHYL ESTER] yielded an IC50 above 50 µM.
Then `Cc1ccc(NC(=O)C(CCCCN)NC(=O)C2c3ccccc3-c3ccccc32)cc1` [Compound 52, (S)-9H-FLUORENE-9-CARBOXYLIC ACID (5-AMINO-1-P-TOLYLCARBAMOYL-PENTYL)-AMIDE], with above 50 µM; and `NCCCC[C@H](NC(=O)OCC1c2ccccc2-c2ccccc21)C(=O)Nc1ccc(CN(C(=O)c2ccco2)C2CCCCC2)cc1` [Compound 6, (S)-[5-AMINO-1-(4-{[CYCLOHEXYL-(FURAN-2-CARBONYL)-AMINO]-METHYL}-PHENYLCARBAMOYL)-PENTYL]-CARBAMIC ACID 9H-FLUOREN-9-YL METHYL ESTER], with below 10 µM.
Under `CC(=O)NCCCCC(NC(=O)OCC1c2ccccc2-c2ccccc21)C(=O)Nc1ccc(C)cc1` [Compound 181, (S)-(5-ACETYLAMINO-1-P-TOLYLCARBAMOYL-PENTYL)-CARBAMIC ACID 9H-FLUOREN-9-YLMETHYL ESTER] stands above 50 µM.
Under `Cc1ccc(NC(=O)C(CCCCN)NC(=O)CN(c2ccccc2)C2CCCCC2)cc1` [Compound 354, (S)-6-AMINO-2-[2-(CYCLOHEXYL-PHENYL-AMINO)-ACETYLAMINO]-HEXANOIC ACID P-TOLYLAMIDE] stands above 50 µM; under `Cc1ccc(NC(=O)[C@H](CCCCN)NC(=O)CNCc2cccc(Cl)c2)cc1` [Compound 348, (S)-6-AMINO-2-[2-(3-CHLORO-BENZYLAMINO)-ACETYLAMINO]-HEXANOIC ACID P-TOLYLAMIDE], above 50 µM.
`CC(=O)c1cccc(NC(=O)[C@H](CCCCN)NC(=O)OCC2c3ccccc3-c3ccccc32)c1` [Compound 219, (S)-[1-(3-ACETYL-PHENYLCARBAMOYL)-5-AMINO-PENTYL]-CARBAMIC ACID 9H-FLUOREN-9-YLMETHYL ESTER] displayed an IC50 above 50 µM.
Under `Cc1ccc(NC(=O)C(CCCCN)NC(=O)Nc2cccc(-c3nc4ccccc4o3)c2)cc1` [Compound 257, (S)-6-AMINO-2-[3-(3-BENZOOXAZOL-2-YL-PHENYL)-UREIDO]-HEXANOIC ACID P-TOLYLAMIDE] stands above 50 µM; under `CC(=O)Nc1cccc(NC(=O)[C@H](CCCCN)NC(=O)OCC2c3ccccc3-c3ccccc32)c1` [Compound 231, (S)-[1-(3-ACETYLAMINO-PHENYLCARBAMOYL)-5-AMINO-PENTYL]-CARBAMIC ACID 9H-FLUOREN-9-YLMETHYL ESTER], above 50 µM.
Under `Cc1ccc(NC(=O)[C@H](CCCCN)NC(=O)Nc2ccc(OCc3ccccn3)cc2)cc1` [Compound 299, (S)-6-AMINO-2-{3-[4-(PYRIDIN-2-YLMETHOXY)-PHENYL]-UREIDO}-HEXANOIC ACID P-TOLYLAMIDE] stands 10 to 50 µM; under `NCCCC[C@H](NC(=O)OCC1c2ccccc2-c2ccccc21)C(=O)N(Cc1ccccc1)C1CCCCC1` [Compound 33, (S)-[5-AMINO-1-(BENZYL-CYCLOHEXYL-CARBAMOYL)-PENTYL]-CARBAMIC ACID 9H-FLUOREN-9-YLMETHYL ESTER], 10 to 50 µM.
Then `COc1ccc2cc(C(=O)NC(CCCCN)C(=O)Nc3ccc(C)cc3)ccc2c1` [Compound 66, (S)-6-METHOXY-NAPHTHALENE-2-CARBOXYLIC ACID (5-AMINO-1-P-TOLYLCARBAMOYL-PENTYL)-AMIDE], with above 50 µM; and `CSCCC(NC(=O)OCC1c2ccccc2-c2ccccc21)C(=O)Nc1ccc(C)cc1` (stereo not shown) [Compound 112], with above 50 µM.
For the compound `COc1ccc(CNC(=O)N[C@@H](CCCCN)C(=O)Nc2ccc(C)cc2)cc1` [Compound 139, (S)-6-AMINO-2-[3-(4-METHOXY-BENZYL)-UREIDO]-HEXANOIC ACID P-TOLYLAMIDE], the IC50 is above 50 µM.
Then `Cc1ccc(NC(=O)[C@H](CCCCN)NS(=O)(=O)c2ccc3ccccc3c2)cc1` [Compound 69, (S)-6-AMINO-2-(NAPHTHALENE-2-SULFONYLAMINO)-HEXANOIC ACID P-TOLYLAMIDE], with above 50 µM; and `Cc1ccc(NC(=O)C(CCCCN)NC(=O)c2ccc(C)c3ccccc23)cc1` [Compound 62, (S)-4-METHYL-NAPHTHALENE-1-CARBOXYLIC ACID (5-AMINO-1-P-TOLYLCARBAMOYL-PENTYL)-AMIDE], with above 50 µM; and `NCCCCC(NC(=O)Cc1cccc2ccccc12)C(=O)Nc1ccc(CN(C(=O)c2ccco2)C2CCCCC2)cc1` (stereo in doubt) [Compound 25, (S)-FURAN-2-CARBOXYLIC ACID {4-[6-AMINO-2-(2-NAPHTHALEN-1-YL-ACETYLAMINO)-HEXANOYLAMINO]-BENZYL}-CYCLOHEXYL-AMIDE], with 10 to 50 µM.
Then `Cc1ccc(NC(=O)[C@H](CCCCN)NS(=O)(=O)c2ccc(Cl)c(Cl)c2)cc1` [Compound 392, (S)-6-AMINO-2-(3,4-DICHLORO-BENZENESULFONYLAMINO)-HEXANOIC ACID P-TOLYLAMIDIE], with above 50 µM; and `Cc1ccc(NC(=O)C(CCCCN)NC(=O)CNCc2ccccc2C(F)(F)F)cc1` [Compound 350, (S)-6-AMINO-2-[2-(2-TRIFLUOROMETHYL-BENZYLAMINO)-ACETYLAMINO]-HEXANOIC ACID P-TOLYLAMIDE], with above 50 µM.
Under `Cc1ccc(NC(=O)C(CNC(=O)CN)NC(=O)OCC2c3ccccc3-c3ccccc32)cc1` [Compound 115, (S)-[2-(2-AMINO-ACETYLAMINO)-1-P-TOLYLCARBAMOYL-ETHYL]-CARBAMIC ACID 9H-FLUOREN-9-YLMETHYL ESTER] stands 10 to 50 µM.
In the case of `Cc1ccc(NC(=O)[C@H](CCCCN)NC(=O)COc2ccccc2)cc1` [Compound 328, (S)-^6-AMINO-^2-(^2-PHENOXY-ACETYLAMINO)-HEXANOIC ACID P-TOLYLAMIDE], the IC50 was above 50 µM.
Then `N[C@@H](CNC(=O)OCC1c2ccccc2-c2ccccc21)C(=O)Nc1ccc(CN(C(=O)c2ccco2)C2CCCCC2)cc1` [Compound 17, (S)-[2-AMINO-2-(4-{[CYCLOHEXYL-(FURAN-2-CARBONYL)-AMINO]-METHYL}-PHENYLCARBAMOYL)-ETHYL]-CARBAMIC ACID 9H-FLUOREN-9-YLMETHYL ESTER], with 10 to 50 µM.
Under `Cc1ccc(NC(=O)C(CCCCN)NC(=O)Cc2ccc3ccccc3c2)cc1` [Compound 48, (S)-6-AMINO-2-(2-NAPHTHALEN-2-YL-ACETYLAMINO)-HEXANOIC ACID P-TOLYLAMIDE] stands above 50 µM; under `Cc1ccc(NC(=O)[C@@H](CCCCN)NC(=O)Nc2cccc(OCc3ccccc3)c2)cc1` [Compound 205, (R)-6-AMINO-2-[3-(3-BENZYLOXY-PHENYL)-UREIDO]-HEXANOIC ACID P-TOLYLAMIDE], above 50 µM.
`CCNCC(=O)NCCCC(NC(=O)OCC1c2ccccc2-c2ccccc21)C(=O)Nc1ccc(C)cc1` [Compound 242, (S)-[4-(2-ETHYLAMINO-ACETYLAMINO)-1-P-TOLYLCARBAMOYL-BUTYL]-CARBAMIC ACID 9H-FLUOREN-9-YLMETHYL ESTER] came in with a concentration for half-maximal inhibition (IC50) below 10 µM.
As for `Cc1cc2cc(NC(=O)[C@H](CCCCNC(=O)CN)NC(=O)OCC3c4ccccc4-c4ccccc43)ccc2[nH]1` [Compound 233, (S)-[5-(2-AMINO-ACETYLAMINO)-1-(2-METHYL-1H-INDOL-5-YLCARBAMOYL)-PENTYL]-CARBAMIC ACID 9H-FLUOREN-9-YLMETHYL ESTER], the IC50 was below 10 µM.
`Cc1ccc(NC(=O)C(CCCCN)NC(=O)Cc2cccc3ccccc23)cc1` [Compound 91, (S)-6-AMINO-2-(2-NAPHTHALEN-1-YL-ACETYLAMINO)-HEXANOIC ACID P-TOLYLAMIDE] came in with an IC50 above 50 µM.
Consider `Cc1cc2cc(NC(=O)[C@H](Cc3ccc(CN)cc3)NC(=O)Nc3ccc(OCc4ccccc4)cc3)ccc2[nH]1` [Compound 227, (S)-3-(4-AMINOMETHYL-PHENYL)-2-[3-(4-BENZYLOXY-PHENYL)-UREIDO]-N-(2-METHYL-1H-INDOL-5-YL)-PROPIONAMIDE], for which the IC50 was below 10 µM.
Under `CN1CCN(C(=O)[C@H](CCCCN)NC(=O)Nc2ccc(OCc3ccccc3)cc2)CC1` [Compound 289, (S)-1-[5-AMINO-1-(4-METHYL-PIPERAZINE-1-CARBONYL)-PENTYL]-3-(4-BENZYLOXY-PHENYL)-UREA] stands above 50 µM; under `O=C(CC1CNCCN1C(=O)Nc1ccc2c(c1)Cc1ccccc1-2)Nc1ccc(C2CCCCC2)cc1` (stereo not shown) [Compound 162, 2-[(4-CYCLOHEXYL-PHENYLCARBAMOYL)-METHYL]-PIPERAZINE-1-CARBOXYLIC ACID (9H-FLUOREN-2-YL)-AMIDE], 10 to 50 µM; under `NCc1ccc(NC(=O)[C@@H](NC(=O)OCC2c3ccccc3-c3ccccc32)c2ccccc2)cc1` [Compound 315, (S)-[(4-AMINOMETHYL-PHENYLCARBAMOYL)-PHENYL-METHYL]-CARBAMIC ACID 9H-FLUOREN-9-YLMETHYL ESTER], 10 to 50 µM.
Then `Cc1ccc(NC(=O)[C@@H](N)CCCCN)cc1` [Compound 114, (S)-2,6-DIAMINO-HEXANOIC ACID P-TOLYLAMIDE], with above 50 µM.
